pIC50: −log10 of the molar value. The source made the active and inactive calls. No cut-off for these calls is given here.
Columns and labels:
Tyrosinase [1] = biological target: T1, Tyrosinase (Agaricus bisporus, UniProt O42713); assay: (§1) Inhibition of mushroom tyrosinase monophenolase activity using L-tyrosine as substrate measured every 60 s for 25 times
T1 sequence (O42713 whole entry): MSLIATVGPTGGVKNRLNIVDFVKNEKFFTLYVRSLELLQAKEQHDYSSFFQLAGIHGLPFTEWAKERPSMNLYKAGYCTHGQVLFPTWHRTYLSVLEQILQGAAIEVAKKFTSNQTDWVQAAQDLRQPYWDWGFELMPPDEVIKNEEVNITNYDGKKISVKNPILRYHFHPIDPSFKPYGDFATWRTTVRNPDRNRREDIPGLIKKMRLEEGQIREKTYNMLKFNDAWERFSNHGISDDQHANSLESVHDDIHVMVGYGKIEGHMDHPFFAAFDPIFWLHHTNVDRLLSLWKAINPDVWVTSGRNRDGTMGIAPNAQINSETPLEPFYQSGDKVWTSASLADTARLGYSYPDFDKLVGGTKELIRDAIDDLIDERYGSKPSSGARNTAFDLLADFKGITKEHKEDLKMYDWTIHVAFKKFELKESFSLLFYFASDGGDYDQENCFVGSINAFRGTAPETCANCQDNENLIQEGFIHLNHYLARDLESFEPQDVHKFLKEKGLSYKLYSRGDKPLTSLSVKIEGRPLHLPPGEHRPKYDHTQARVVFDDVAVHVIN

Tyrosinase [2] = biological target: T1, Tyrosinase; assay: (§2) Inhibition of mushroom tyrosinase diphenolase activity using L-DOPA as substrate measured every 30 s for 25 times
[3] = biological target: T2, Tyrosinase (Agaricus bisporus) (UniProt O42713); assay: Ratio of IC50 for mushroom tyrosinase diphenolase activity using L-DOPA as substrate to IC50 for mushroom tyrosinase monophenolase activity using L-tyrosine as substrate
T2 sequence (whole entry): T1 sequence (O42713 whole entry)

[4] = biological target: T2, Tyrosinase (Agaricus bisporus); assay: as §1
[5] = biological target: T2, Tyrosinase (Agaricus bisporus); assay: Potency index, ratio of IC50 for benzoic acid to IC50 for test compound for inhibition of mushroom tyrosinase monophenolase activity
[6] = biological target: T2, Tyrosinase (Agaricus bisporus); assay: Non-competitive inhibition of mushroom tyrosinase monophenolase activity using L-tyrosine as substrate at 5 to 10 uM measured every 60 s for 25 times by Lineweaver-Burk plot analysis
[7] = biological target: T2, Tyrosinase (Agaricus bisporus); assay: Mixed-type inhibition of mushroom tyrosinase diphenolase activity using L-DOPA as substrate at 3 to 30 uM measured every 30 s for 25 times by Lineweaver-Burk plot analysis
Tyrosinase [8] = biological target: T1, Tyrosinase; assay: Inhibition of mushroom tyrosinase using L-DOPA as substrate preincubated for 5 mins followed by substrate addition measured for 2 mins by spectrophotometric analysis
[9] = biological target: T2, Tyrosinase (Agaricus bisporus); assay: as §2
Tyrosinase [10] = biological target: T1, Tyrosinase; assay: Inhibition of mushroom tyrosinase using L-tyrosine as substrate assessed as dopachrome formation preincubated for 10 mins followed by protein addition measured after 20 mins by microplate reader analysis

pIC50 (Tyrosinase [1]) | pIC50 (Tyrosinase [2]) | Ratio IC50 [3] | inhibition [4] | SMILES | further results
< 3.00 | < 3.00 |  |  | O=C(O)c1ccccc1-c1ccccc1 | 
5.16 | 4.44 | 5.21 | Dose-dependent effect | O=C(O)c1cccc(-c2ccccc2)c1 | Ratio IC50 [5]: 30; inhibition [6]: Active; inhibition [7]: Active
 |  |  | inactive | CCOC(=O)c1cccc(-c2ccccc2)c1 | inhibition [9]: inactive
 |  |  |  | COc1ccc(C(=O)O)cc1 [p-ANISIC ACID] | pIC50 (Tyrosinase [10]): 3.38
 |  |  |  | Nc1ccc(C(=O)O)cc1 [AMINOBENZOIC ACID] | pIC50 (Tyrosinase [10]): 5.42
4.20 | 3.67 | 3.42 | Dose-dependent effect | O=C(O)c1ccc(-c2ccccc2)cc1 | 

SMILES | pIC50 (Tyrosinase [1]) | pIC50 (Tyrosinase [2]) | Ratio IC50 [3] | inhibition [4] | further results
O=C(O)c1ccccc1 [BENZOIC ACID] | 3.65 | 3.09 | 3.66 |  | pIC50 (Tyrosinase [8]): 3.15

From ChEMBL document CHEMBL4425197, “Discovery of a new type of scaffold for the creation of novel tyrosinase inhibitors” (Bioorg Med Chem, 2016)
